Source: patent publication US10633338B2, “Binding Function 3 (BF3) site compounds as therapeutics and methods for their use” (THE UNIVERSITY OF BRITISH COLUMBIA, priority 2014, dated 2020)

Experiments:
[1] = molecular target: T1, androgen receptor (AR) (Homo sapiens, UniProt P10275, T878A); assay: eGFP cellular AR transcription assay; assay type: cell-based; details: LN-ARR2PBeGFP LNCaP cells, 0.1 nM R1881, 3 days incubation; for IC50: read-out: eGFP IC50
T1 construct: stably transfected eGFP-expressing LNCaP human prostate cancer cells (LN-ARR2PB-eGFP) containing an androgen responsive probasin-derived promoter; endogenous in cells; host or cells: LNCaP (LN-ARR2PB-eGFP)
T1 sequence (P10275 1-920 T878A): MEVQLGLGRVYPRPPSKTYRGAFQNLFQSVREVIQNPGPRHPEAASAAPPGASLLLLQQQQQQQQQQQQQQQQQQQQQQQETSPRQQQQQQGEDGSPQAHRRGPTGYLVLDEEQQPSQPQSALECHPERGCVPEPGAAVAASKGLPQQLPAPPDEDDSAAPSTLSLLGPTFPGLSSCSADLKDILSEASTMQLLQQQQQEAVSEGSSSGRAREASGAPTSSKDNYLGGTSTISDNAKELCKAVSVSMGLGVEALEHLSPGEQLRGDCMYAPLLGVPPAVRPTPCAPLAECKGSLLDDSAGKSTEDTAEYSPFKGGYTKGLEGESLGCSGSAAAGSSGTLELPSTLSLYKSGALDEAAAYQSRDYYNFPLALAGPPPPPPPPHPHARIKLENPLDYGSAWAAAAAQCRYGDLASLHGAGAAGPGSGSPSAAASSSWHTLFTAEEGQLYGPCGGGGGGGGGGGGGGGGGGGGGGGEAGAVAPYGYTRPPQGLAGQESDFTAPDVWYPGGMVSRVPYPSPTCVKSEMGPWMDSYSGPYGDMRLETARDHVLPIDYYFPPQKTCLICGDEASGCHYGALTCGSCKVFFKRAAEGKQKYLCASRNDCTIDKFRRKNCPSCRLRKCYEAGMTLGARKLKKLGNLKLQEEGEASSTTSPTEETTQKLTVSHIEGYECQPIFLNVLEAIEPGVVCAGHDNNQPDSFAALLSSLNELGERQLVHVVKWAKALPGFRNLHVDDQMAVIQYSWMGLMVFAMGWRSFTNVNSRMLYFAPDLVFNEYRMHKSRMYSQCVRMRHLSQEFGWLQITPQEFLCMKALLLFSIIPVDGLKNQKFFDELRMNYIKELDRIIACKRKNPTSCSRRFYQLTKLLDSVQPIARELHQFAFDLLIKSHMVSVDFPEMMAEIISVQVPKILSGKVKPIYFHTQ
Summary of the method: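 AR transcriptional activity is read as eGFP expression from a probasin-derived androgen-responsive promoter. Compound titrated 0-100 μM in the presence of 0.1 nM R1881; 35,000 cells/well.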

[2] = test system: PSA; assay: Prostate Surface Antigen (PSA) assay, PSA excreted into the media; assay type: cell-based, human; details: PSA excreted into media, same plates as eGFP assay, 3 days incubation; for IC50: Homo sapiens, 72 h, read-out: PSA IC50
Method: The evaluation of PSA excreted into the media was performed in parallel to the eGFP assay using the same plates (see above description). After the cells were incubated for 3 days 150 μl of the media was taken from each well, and added to 150 μl of PBS.

SMILES | eGFP IC50 [1] | PSA IC50 [2] | IC50 [1] [nM] | IC50 [2] [nM]
Cc1cccc2c(-c3ccc4c(C#N)cccc4n3)c[nH]c12 [Compound 13598] | Inactive | Inactive |  | 
Cc1cc(C)c2[nH]cc(-c3ccc4cc(F)ccc4n3)c2c1 [Compound 13599] | Inactive | Inactive |  | 
Cc1ccc(C)c2c(-c3ccc4ccccc4n3)c[nH]c12 [Compound 13600] |  |  | 1250 | 929
Cc1cccc2c(-c3ncc4ccccc4n3)c[nH]c12 [Compound 13603] |  |  | 633 | 339
Cc1cccc2c(C3=Nc4ccccc4CN3)c[nH]c12 [Compound 13604] | Inactive | Inactive |  | 
Cc1cccc2c(-c3ccc4c(Cl)cccc4n3)c[nH]c12 [Compound 13605] | Inactive | Inactive |  | 
Cc1cc(C)c2[nH]cc(-c3ccc4c(C#N)cccc4n3)c2c1 [Compound 13608] | Inactive | Inactive |  | 
Cc1c(F)ccc2c(-c3ccc4c(C#N)cccc4n3)c[nH]c12 [Compound 13609] | Inactive | Inactive |  | 
Cc1cc(F)c2[nH]cc(-c3ccc4ccccc4n3)c2c1 [Compound 13612] |  |  | 1440 | 813
Fc1c(Cl)ccc2c(-c3ccc4ccccc4n3)c[nH]c12 [Compound 13613] |  |  | 11500 | 1740
Fc1ccc2nc(-c3c[nH]c4cc(F)c(F)cc34)ccc2c1 [Compound 13614] |  |  | 1120 | 597
CNC(=O)c1cccc2nc(-c3c[nH]c4c(C)c(F)ccc34)ccc12 [Compound 13615] | Inactive | Inactive |  | 
Cc1cccc2nc(-c3c[nH]c4c(C)c(F)ccc34)ccc12 [Compound 13616] | Inactive | Inactive |  | 
Fc1ccc2c(-c3ccc4c(C(F)(F)F)cccc4n3)c[nH]c2c1F [Compound 13617] | Inactive | Inactive |  | 
Cc1cccc2c(-c3ccc4c(O)cccc4n3)c[nH]c12 [Compound 13620] | Inactive | Inactive |  | 
Brc1cccc2c(-c3ccc4ccccc4n3)c[nH]c12 [Compound 13621] |  |  | 20 | 8
Cc1cccc2c(-c3ccc4c(F)cccc4n3)c[nH]c12 [Compound 13623] | Inactive | Inactive |  | 
Cc1cc(Cl)cc2c(-c3ccc4ccccc4n3)c[nH]c12 [Compound 13626] |  |  | 2700 | 1650
c1ccc2ncc(-c3c[nH]c4ccccc34)cc2c1 [Compound 13628] |  |  | 800 | 610
Oc1cc2ccccc2nc1-c1c[nH]c2cc(F)c(F)cc12 [Compound 13629] |  |  | 4900 | 1780
Fc1ccc2ccc(-c3c[nH]c4cc(F)c(F)cc34)nc2c1 [Compound 13630] |  |  | 600 | 430
Cc1c(F)ccc2c(-c3ccc4c(F)cccc4n3)c[nH]c12 [Compound 13631] | Inactive | Inactive |  | 
Cc1cccc2c(-c3ccc4c([N+](=O)[O-])cccc4n3)c[nH]c12 [Compound 13632] | Inactive | Inactive |  | 
Cc1c(F)ccc2c(-c3ccc4cccc(F)c4n3)c[nH]c12 [Compound 13635] | Inactive | Inactive |  | 

SMILES | eGFP IC50 [1] | PSA IC50 [2] | IC50 [1] [nM] | IC50 [2] [nM]
Cc1cc(C)c2nc(-c3c[nH]c4c(C)c(F)ccc34)ccc2c1 [Compound 13636] | Inactive | Inactive |  | 
c1ccc2ncc(-c3c[nH]c4ccncc34)cc2c1 [Compound 13637] | Inactive | Inactive |  | 
COc1ccc(Br)cc1-c1c[nH]c2ccccc12 [Compound 13638] | Inactive | Inactive |  | 
Fc1ccc(Cl)c2[nH]cc(-c3ccc4ccccc4n3)c12 [Compound 13639] |  |  | 549 | 544
CNC(=O)c1cccc2nc(-c3c[nH]c4cc(F)c(F)cc34)ccc12 [Compound 13645] |  |  | 261 | 247
Cc1c(F)ccc2c(-c3ccc4ccc(F)cc4n3)c[nH]c12 [Compound 13646] |  |  | 179 | 224
Cc1ccc2nc(-n3ccc4cccc(C)c43)ccc2c1 [Compound 13647] | Inactive | Inactive |  | 
Cc1cccc2ccn(-c3ccc4ccc(F)cc4n3)c12 [Compound 13648] | Inactive | Inactive |  | 
Cc1ccc2ccc(-n3ccc4cccc(C)c43)nc2c1 [Compound 13649] | Inactive | Inactive |  | 
Cc1c(F)ccc2c(-c3nc4ccccc4cc3O)c[nH]c12 [Compound 13652] |  |  | 3540 | 1760
Brc1cccc2c(-c3cnc4ccccc4c3)c[nH]c12 [Compound 13653] |  |  | 1130 | 290
Cc1cccc2c(-c3cccnc3)c[nH]c12 [Compound 13655] |  |  | 1660 | 610
Fc1ccc(F)c2c(-c3ccc4ccccc4n3)c[nH]c12 [Compound 13656] |  |  | 990 | 460
Cc1cc(F)cc2c(-c3cc(C#N)c4ccccc4n3)c[nH]c12 [Compound 13657] | Inactive | Inactive |  | 
Cc1ccc2ccc(-c3c[nH]c4c(C)cccc34)nc2c1 [Compound 13658] |  |  | 2850 | 2210
Cc1cc(-c2c[nH]c3c(C)c(F)ccc23)nc2ccccc12 [Compound 13659] | Inactive | Inactive |  | 
Cc1ccc2ccc(-c3c[nH]c4c(C)c(F)ccc34)nc2c1 [Compound 13660] |  |  | 2500 | 1890
Cc1cccc2c(-c3nc4ccccc4cc3O)c[nH]c12 [Compound 13661] | Inactive | Inactive |  | 
Cc1cccc2c(-c3cnc4cccnc4c3)c[nH]c12 [Compound 13662] | Inactive | Inactive |  | 
c1ccc2nc(-c3n[nH]c4ccccc34)ccc2c1 [Compound 13663] | Inactive | Inactive |  | 
N#Cc1cc(-c2c[nH]c3cc(F)c(F)cc23)nc2ccccc12 [Compound 13664] | Inactive | Inactive |  | 
Cc1c(F)ccc2c(-c3ccc4cccc(Cl)c4n3)c[nH]c12 [Compound 13665] |  |  | 270 | 210
O=C(O)c1cccc2nc(-c3c[nH]c4c(F)cc(F)cc34)ccc12 [Compound 13666] | Inactive | Inactive |  | 
O=[N+]([O-])c1cccc2nc(-c3c[nH]c4c(Cl)cc(F)cc34)ccc12 [Compound 13667] | Inactive | Inactive |  | 
